Results taken from US20240196885A1, “INSECT PEST BAIT COMPOSITION WITH ISO[…] METHOD FOR CONTROLLING INSECT PESTS” (SYNGENTA CROP PROTECTION AG, priority 2021, published 2024).

Assays:
Assay type in all cases: in vivo
[1] = test system: Reticulitermes santonensis; test: Termite worker knockdown and mortality after exposure to filter paper bait
Protocol: (§1) Bait preparation. isocyloseram was applied dissolved in acetone to the appropriate insect diet such that the desired a.i. loading was delivered in the diet after the acetone had evaporated. • House fly—granulated sugar • Termites—filter paper • Darkling beetle—oat flakes
(§2) In a suitable arena, 10 insects of each species were exposed to 1 g of the solid baits. Baits were presented in such a way as to minimise the contact exposure. Three replicates of each treatment and species were conducted.
(§3) Insect knockdown was assessed one and three hours after exposure, and mortality after 24 and 48 and 168 hours.

Musca domestica = test: Adult house fly knockdown and mortality after exposure to a sugar bait
Protocol: as §1, §2, §3

Darkling beetle larvae [2] = test: Darkling beetle larval knockdown and mortality after exposure to oat flake bait; settings: larval stage, 100 ppm, after seven days
Darkling beetle adults = test: Darkling beetle adult knockdown and mortality after exposure to oat flake bait; settings: for Mean % knockdown or mortality: adults
Protocol: as §1, §2, §3

[3] = test system: German cockroaches, Blattella germanica; test: Cockroach peanut butter bait: donor mortality and secondary kill of recipients; settings: for Recipient % mortality: recipients exposed to donors of 1% bait, not to the bait
Protocol: Isocycloseram was incorporated into the peanut-butter base by mixing 0.5 ml of a 10000 ppm (1%) solution of the compound in acetone into 0.5 g of peanut butter. The mixture was left in a fume cupboard for 24 hours to allow the acetone to evaporate, leaving […] of compound in 0.5 g of peanut butter, equivalent to 10000 ppm.
Five adult male and five non-gravid adult female German cockroaches, Blattella germanica, were marked with a dot of white paint, to identify them, and placed into a plastic arena approximately 20 cm in diameter. Also placed in each arena was a simple harbourage constructed from concertinaed card and a water source. After the cockroaches had acclimatised for 24 hours a 15 ml glass vial containing 0.5 g of the treated peanut butter bait was added.
After 48 hours the glass vial containing the bait was removed, and an assessment of the cockroach mortality was made. Five adult male and five non-gravid adult female German cockroaches, Blattella germanica, were added to the arena, leaving any dead or alive cockroaches with the white paint mark in the arena.
Mortality of both the marked and unmarked cockroaches was made after 24 and 96 hours.

[4] = test system: Atta bisphaerica (leaf cutter ant); test: Field test for control of leaf cutter ant with pelleted citrus pulp bait; settings: for control efficiency after opening the nests in the excavation of the anthills: excavation at 155 DAA, modified Abbott formula; for ceased activity in leaf cutting by ants: ninety days after application
Protocol: Bait preparation. Blends of citrus pulp and refined soybean oil (95/5 w/w %) were sprayed with an aqueous isocycloseram suspension concentrate (SC) such as […]™ (Syngenta Agro S.A.), further blended and pelletized. Bait pellets or granules having an isocycloseram a.i. loading of 0.05, 0.1, 0.2 and 0.3%, respectively, were prepared.
The field test for the control of Atta bisphaerica (leaf cutter ant) was conducted with the pelleted isocycloseram citrus pulp bait. The experimental design was completely randomized, with fourteen treatments and 10 replications, following the norms, considering an anthill as repetition. The treatments used were: isocyloseram −0.05% at doses of 6, 10 and 12 g/m^2, isocyloseram […] 0.1% at doses of 6, 10 and 12 g/m^2, isocyloseram −0.2% at doses of 6, 10 and 12 g/m^2, isocyloseram −0.3% at doses of 6, 10 and 12 g/m^2, A commercial standard Mirex-S (sulfluramid) at a dose of 10 g/m^2 and a control (Placebo); commercial product dosages per m^2 of loose earth. The evaluations with 1, 2, 3 and 7 DAA (days after application) included the loading rate parameters (%) (i.e. the % bait applied that is carried into the ant nest), return rate (%) (i.e. the % bait rejected by the colony) and intoxicated ants. As 1, 2, 3, 7, 15, 28, 60, 90, 118 and 155 DAA, the ground removal parameters (%) and leaf cutting and anthill excavation at 155 DAA.
The application of the products was carried out manually, with the aid of a dosing cup, near the scouts and trails of the anthills. The results obtained were submitted to variance analysis, compared by the Scott-Knott test (p≤0.05) and corrected by the modified Abbott formula for control calculation.

Darkling beetle larvae [5] = test: Darkling beetle larval knockdown and mortality after exposure to oat flake bait
Protocol: as §1, §2, §3

[6] = test system: Agrotis ypsilon (Greasy cutworm); test: Protection of corn seedlings from Agrotis ypsilon larvae in field arenas (bait, foliar spray, seed treatment)
Protocol: Trial layout: Arenas of 4 square metres were created in a field with 20 cm high plastic walls to prevent escape of larvae and influx of predators but left to the open air. 3 replicates per trearment were set up. Corn (variety Hightech 2031, conventional non-Bt) was planted at the rate of 30 seeds per arena.
Application method 1: For seed treatment, the seeds were treated with aqueous 40% isocycloseram formulation, such as […]™ (Syngenta Agro S.A.), one day before planting using a standard seed treatment water slurry volume of 50 ml/kg of seed. Four rates of isocycloseram seed treatment were tested 0.3, 0.6, 1.3 and 2.5 mg/seed.
Application method 2: For bait application, dried cobs of maize corn were ground after removal of the seeds to form a coarse granular “corn grit” bait carrier. The corn grit was spread out on a plastic sheet and sprayed with a 40% SC aqueous formulation of isocycloseram mixed with water at the rates of 15, 30 and 60 grams of isocycloseram per 70 kg of corn grit. The baits were then mixed homogeneously and spread by hand in the evening at a rate of 70 kg/ha (7 gr./sqm, or 28 gr./plot) evenly over the soil surface. This was done 4 days after planting, just before emergence of the corn to attract and kill the cutworms at night.
Application method 3: For foliar sprays, a standard hand-held spray-boom with flat-fan nozzles at 600 I/ha was used. The spray was made 1 day after release of the Greasy cutworm larvae at the 2 leaf stage (BBCH 12) of the corn. Three rates were used 30, 60 and 90 grams isocyclseram per hectare
Two check lots were included—both untreated, one with infestation and one without infestation.
Artificial infestation: Laboratory-reared Agrotis ypsilon (Greasy cutworm) larvae at the L5 stage were released into the arenas at a rate of 30 larvae per arena (1 larva per plant) in the morning. This infestation was made Infest 30 L5 larvae into each arena in the morning (1 larva per plant) approx 3 days after seeding just as corn is germinating. Make the application 8-24 hours later.
Assessment: The number of damaged plants per plot was measured at 21 days after the last application (the foliar spray).

[7] = test system: Agrotis ypsilon (Greasy cutworm); test: as above; remark: listed apart in the source
[8] = 0.1% in oat flake bait, 3 hours
[9] = 0.1% in oat flake bait, 24 hours
[10] = 0.1% in oat flake bait, 48 hours
[11] = 0.1% in oat flake bait, 168 hours
[12] = 1% in oat flake bait, 168 hours

Q: How did the “Mean % knockdown or mortality” value ([1]; 0.10% in filter paper bait, 1 hour) turn out when CCN1OCC(NC(=O)c2ccc(C3=NOC(c4cc(Cl)c(F)c(Cl)c4)(C(F)(F)F)C3)cc2C)C1=O (centres unmarked) [isocyloseram, Isocycloseram] was run?
A: 0%

Q: What about the “Mean % knockdown or mortality” value ([1]; 0.10% in filter paper bait, 3 hours) of the same compound?
A: 0%

Q: What about the “Mean % knockdown or mortality” value ([1]; 0.10% in filter paper bait, 24 hours) of the same compound?
A: 100%

Q: What about the “Mean % knockdown or mortality” value ([1]; 0.10% in filter paper bait, 48 hours) of the same compound?
A: 100%

Q: What about the “Mean % knockdown or mortality” value ([1]; 1% in filter paper bait, 1 hour) of the same compound?
A: 0%

Q: And the “Mean % knockdown or mortality” value ([1]; 1% in filter paper bait, 3 hours)?
A: 7%

Q: What about the “Mean % knockdown or mortality” value ([1]; 1% in filter paper bait, 24 hours) of the same compound?
A: 100%

Q: What about the “Mean % knockdown or mortality” value ([1]; 1% in filter paper bait, 48 hours) of the same compound?
A: 100%

Q: What about the “Mean % knockdown or mortality” value (Musca domestica; 0.10% in sugar bait, 1 hour) of the same compound?
A: 0%

Q: And the “Mean % knockdown or mortality” value (Musca domestica; 0.10% in sugar bait, 3 hours)?
A: 57%

Q: And the “Mean % knockdown or mortality” value (Musca domestica; 0.10% in sugar bait, 24 hours)?
A: 100%

Q: And the “Mean % knockdown or mortality” value (Musca domestica; 1% in sugar bait, 1 hour)?
A: 0%

Q: And the “Mean % knockdown or mortality” value (Musca domestica; 1% in sugar bait, 3 hours)?
A: 97%

Q: What about the “Mean % knockdown or mortality” value (Musca domestica; 1% in sugar bait, 24 hours) of the same compound?
A: 100%

Q: And the mortality (Darkling beetle larvae [2])?
A: 100%

Q: And the mortality (Darkling beetle adults; adult stage, 100 ppm, after seven days)?
A: 100%

Q: What about the “Mean % knockdown or mortality” value (Darkling beetle adults; 0.1% in oat flake bait, 1 hour) of the same compound?
A: 0%

Q: And the “Mean % knockdown or mortality” value (Darkling beetle adults; [8])?
A: 0%

Q: What about the “Mean % knockdown or mortality” value (Darkling beetle adults; [9]) of the same compound?
A: 0%

Q: And the “Mean % knockdown or mortality” value (Darkling beetle adults; [10])?
A: 3%

Q: And the “Mean % knockdown or mortality” value (Darkling beetle adults; [11])?
A: 7%

Q: And the “Mean % knockdown or mortality” value (Darkling beetle adults; 1% in oat flake bait, 1 hour)?
A: 0%

Q: What about the “Mean % knockdown or mortality” value (Darkling beetle adults; 1% in oat flake bait, 3 hours) of the same compound?
A: 0%

Q: What about the “Mean % knockdown or mortality” value (Darkling beetle adults; 1% in oat flake bait, 24 hours) of the same compound?
A: 93%

Q: And the “Mean % knockdown or mortality” value (Darkling beetle adults; 1% in oat flake bait, 48 hours)?
A: 97%

Q: And the “Mean % knockdown or mortality” value (Darkling beetle adults; [12])?
A: 100%

Q: What about the Donor % mortality ([3]; 1% in peanut butter bait, 48 hours) of the same compound?
A: 100%

Q: And the Recipient % mortality ([3]; 24 hours post introduction)?
A: 97%

Q: And the Recipient % mortality ([3]; 96 hours post introduction)?
A: 100%

Q: What about the “control efficiency after opening the nests in the excavation of the anthills” value ([4]; 0.2% bait (10 and 12 g)) of the same compound?
A: higher than 84%

Q: What about the “control efficiency after opening the nests in the excavation of the anthills” value ([4]; 0.3% bait (6, 10 and 12 g)) of the same compound?
A: higher than 84%

Q: What about the “response rate as a function of the time of intoxication” value ([4]; first three days after application of bait) of the same compound?
A: 87.5%

Q: And the “ceased activity in leaf cutting by ants” value ([4]; 0.1% bait (12 g))?
A: 100%

Q: And the “ceased activity in leaf cutting by ants” value ([4]; 0.2% bait (6, 10 and 12 g))?
A: 100%

Q: And the “ceased activity in leaf cutting by ants” value ([4]; 0.3% bait (6, 10 and 12 g))?
A: 100%

Q: What about the “response rate as a function of the time of intoxication” value ([4]; seven days after bait application) of the same compound?
A: 100%

Q: What about the “average (ground) removal” value ([4]; twenty-eight days after treatment) of the same compound?
A: less than 5%

Q: And the “Mean % knockdown or mortality” value (Darkling beetle larvae [5]; 0.1% in oat flake bait, 1 hour)?
A: 0%

Q: What about the “Mean % knockdown or mortality” value (Darkling beetle larvae [5]; [8]) of the same compound?
A: 0%

Q: And the “Mean % knockdown or mortality” value (Darkling beetle larvae [5]; [9])?
A: 0%

Q: What about the “Mean % knockdown or mortality” value (Darkling beetle larvae [5]; [10]) of the same compound?
A: 3%

Q: And the “Mean % knockdown or mortality” value (Darkling beetle larvae [5]; [11])?
A: 23%

Q: What about the “Mean % knockdown or mortality” value (Darkling beetle larvae [5]; 1% in oat flake bait, 1 hour) of the same compound?
A: 0%

Q: What about the “Mean % knockdown or mortality” value (Darkling beetle larvae [5]; 1% in oat flake bait, 3 hours) of the same compound?
A: 23%

Q: And the “Mean % knockdown or mortality” value (Darkling beetle larvae [5]; 1% in oat flake bait, 24 hours)?
A: 80%

Q: And the “Mean % knockdown or mortality” value (Darkling beetle larvae [5]; 1% in oat flake bait, 48 hours)?
A: 83%

Q: And the “Mean % knockdown or mortality” value (Darkling beetle larvae [5]; [12])?
A: 100%

Q: What about the “% reduction of corn damage 22 d after infestation” value (shortened to “% reduction of corn damage 22 d”) ([6]; Corn Grit Bait 0.42 gai/kg bait, equivalent 30 gai/ha) of the same compound?
A: 94%

Q: What about the “% reduction of corn damage 22 d” value ([6]; Corn Grit Bait 0.63 gai/kg bait, equivalent 60 gai/ha) of the same compound?
A: 94%

Q: What about the “% reduction of corn damage 22 d” value ([6]; Corn grit Bait 0.21 gai/kg bait, equivalent 15 gai/ha) of the same compound?
A: 87%

Q: And the “% reduction of corn damage 22 d” value ([6]; Foliar spray 30 gai/ha)?
A: 37%

Q: What about the “% reduction of corn damage 22 d” value ([6]; Foliar spray 60 gai/ha) of the same compound?
A: 46%

Q: And the “% reduction of corn damage 22 d” value ([6]; Foliar spray 90 gai/ha)?
A: 74%

Q: What about the “% reduction of corn damage 22 d” value ([6]; Seed treatment 0.3 mg ai/seed, equivalent 18 gai/ha) of the same compound?
A: 0%

Q: And the “% reduction of corn damage 22 d” value ([6]; Seed treatment 0.6 mg ai/seed, equivalent 36 gai/ha)?
A: 2%

Q: What about the “% reduction of corn damage 22 d” value ([6]; Seed treatment 1.3 mg ai/seed, equivalent 72 gai/ha) of the same compound?
A: 6%

Q: And the “% reduction of corn damage 22 d” value ([6]; Seed treatment 2.5 mg ai/seed, equivalent 144 gai/ha)?
A: 13%

Q: How did the “% reduction of corn damage 22 d” value ([7]; Foliar spray 22.4 gai/ha) turn out when CC1(C)[C@H](C(=O)O[C@H](C#N)c2cccc(Oc3ccccc3)c2)[C@@H]1/C=C(\Cl)C(F)(F)F [lambdacyhalothrin, Lambdacyhalothrin] was run?
A: 81%

Q: For Spinetoram, which “% reduction of corn damage 22 d” value ([7]; Foliar spray 18 gai/ha) is on record?
A: 28%
